US20250302817A1, “METHODS FOR TREATING PTEN-MUTANT TUMORS” (Icahn School of Medicine at Mount Sinai, priority 2016, published 2025)

How the values were obtained:
Pten^−/− and WT MEFs [1] = assay: Drug response assay (GI50 dose titration) in Pten WT and KO MEFs; assay type: cell-based, mouse; conditions: for differential sensitivity of Pten^−/− versus WT MEFs: GI50 dose titration (FIG. 8, E-F)
Experimental: (§1) FIG. 2F is a graph comparing various human breast cancer cell line growth rates. FIG. 2G is a series of immunoblots of pAKT in nuclear fractions of Pten^−/− and Pik3ca mutant MEFs. […] Data shown as mean+SD.
(§2) 1500 cells per well (mouse cells) or 3000 cells per well (human cells) were plated in 96-well plates (Corning 720089). Growth rates were determined using the phase-confluency readings on an IncuCyte ZOOM (Essen Biosciences) on live cells over time.
(§3) Cells were plated in 96-well plates at a density of 1500 or 3000 cells per well. […] Sensitivity was determined by a dose-response titration for each cell line, with an equivalent amount of DMSO in each well. For cell death assays, DRAQ7™ (Cell Signaling 7406S) was added to the media at a 1:200 dilution and red fluorescence was measured in addition to phase in live-cell imaging to measure accumulation of dead cells. An IncuCyte ZOOM was used.

Pten^−/− and WT MEFs [2] = assay: Growth of Pten WT and KO MEFs with glutaminase inhibitor (proliferation assay); assay type: cell-based, mouse; conditions: 12.5 nM CB-839 (FIG. 1F)
Experimental: FIG. 1A is a graph comparing the growth of Pten wild-type (WT) and KO MEFs (one-way ANOVA, *p<0.0001, n=3). FIG. 1B is a series of representative confocal microscopy photographs showing MEFs labeled with EdU. FIG. 1C is a graph showing a quantitative depiction of the photographs in FIG. 1B (Student's t-test, *p<0.05, n=6). FIG. 1D is a graph showing a quantitative depiction of the mean fluorescence intensity of MEFs labeled with EdU; cells were analyzed by flow cytometry (Student's t-test, *p<0.01, n=3). FIG. 1E is a series of representative photographs showing Pten WT and KO MEFs in media containing full glutamine ([…]) or no added glutamine (one-way ANOVA, *p<0.0001, n=3). […] FIG. 1G is a graph comparing the relative metabolite concentrations of DNA nucleotide precursors in Pten WT and KO MEFs (dGMP was unable to be measured so dGTP was used instead) (Student's t-test, *p<0.05, n=3). […] Data were also analyzed with IMPaLA: ^13C glutamine-derived pyrimidine metabolism enrichment in PTEN^−/− MEFs q-value=3.92×10^−09. […]
1500 cells per well (mouse cells) or 3000 cells per well (human cells) were plated in 96-well plates (Corning 720089). Growth rates were determined using the phase-confluency readings on an IncuCyte ZOOM (Essen Biosciences) on live cells over time. […]

[3] = system: MCCL-357 (Myc, Pten^−/−), CaP8 (PTEN^−/−), MCCL-278 (Myc, Pik3ca H1047R) and Myc-CaP (Myc); assay: Drug response assay (GI50) in mouse cancer lines; assay type: cell-based; conditions: Myc-CaP prostate cells (FIG. 7D)
From the text: as §1
(§4) FIG. 7C, FIG. 7D, and FIG. 7E are series of bar graphs depicting the GI50s of cells treated with dose titrations of DHODH inhibitors as indicated (Student's t-test, *p-values as reported on the figures, n=3). […] FIG. 7G depicts the confluence of MCCL-278 and MCCL-357 breast cells. FIG. 7H depicts the confluence of Myc-CaP and CaP8 prostate cells. FIG. 7I is an immunoblot of pAKT in MCCL-278 and MCCL-357 breast cells. FIG. 7J is an immunoblot of pAKT in nuclear fractions of MCCL-278 and MCCL-357 breast cells. Data shown as means±SD.
as §3

[4] = system: Pten^−/− MEFs, PTEN-mutant human breast cancer cell lines, and Pten^−/− mouse breast lines; assay: Cell death accumulation by live-cell imaging with DRAQ7; assay type: cell-based; conditions: 100 uM leflunomide and DRAQ7, 6 h intervals; PTEN-deficient versus WT cells
From the text: as §1, §4, §3

[5] = system: human breast, mouse breast, or mouse prostate tumor cell lines; assay: Proliferation rates of tumor cell lines versus leflunomide sensitivity; assay type: cell-based
From the text: as §1, §4, §2

[6] = system: SUM149 and MDA-MB 468 xenografts; assay: PTEN-mutant triple-negative breast cancer xenografts; assay type: in vivo, nu/nu mice
Experimental: FIG. 3B is a graph showing the tumor volume of PTEN-mutant triple-negative breast cancer cell line SUM149 xenografts. […] FIG. 3C is a graph showing the relative luminescence of PTEN-mutant triple-negative breast cancer cell line MDA-MB 468 xenografts expressing luciferase. […] Radiance was measured on days 0, 7, 14, and 21, quantified as photons/second/cm^2/steradian. FIG. 3D: luminescence of treated and control mice after 2 weeks of treatment. Data shown as mean+SD for FIG. 3A and +SEM for FIGS. 3B and 3C.
FIG. 9A is an immunoblot of PTEN in the four patient-derived glioblastomas in FIG. 3A. […] Tumor size was measured by assessing luminescence, quantified by photons/second/cm^2/steradian (n=2). […] Tumor volume was measured by calipers. Growth rate of the tumors was determined by calculating the slope of the tumor growth (Student's t-test, *p<0.01, n=8). Data shown as means±SEM.
6-week old nu/nu mice (Jackson Laboratory, 20-25 g weight each) were engrafted orthotopically with either 5 million SUM149, 5 million MDAMB 468-luciferase, 1 million MCCL-357, or 0.75 million MCCL-278 cells. […] Luminescence was measured on days 0, 7, 14, and 21, quantified as photons/second/cm^2/steradian, and normalized to baseline.

gamma-H2AX = assay: Gamma-H2AX measurement of DNA damage by flow cytometry; assay type: cell-based; conditions: 100 μM leflunomide 48 h or A771726
Experimental: (§5) FIG. 4A is a graph showing positively-stained cells labeled with a gamma-H2AX antibody; cells were analyzed by flow cytometry (Student's t-test, *p<0.05, n=3). […] The mean fluorescence intensity (MFI) was determined using flow cytometry (Student's t-test, *p<0.01, n=3). FIG. 4C is a series of representative photographs showing MEFs treated with 150 μM A771726 for 24 h and labeled with EdU and gamma-H2AX. Left: representative confocal microscopy images. Right: quantified EdU and gamma-H2AX colocalized foci (Student's t-test, *p<0.05, n=3). […] Left: representative confocal microscopy images. Right: quantification of the number of foci per cell (Student's t-test, p>0.05, n=6). FIG. 4E is a graph showing the percentage of cells treated with 150 μM A771726 for times indicated and labeled with antibodies to RPA and gamma-H2AX positively staining for RPA alone or both RPA and gamma-H2AX; cells were analyzed by flow cytometry (Student's t-test, *p<0.05, n=4). […] FIGS. 4G and 4H are graphs quantifying the number of chromosomal breaks and multiradial formations per haploid genome (Student's t-test, *p-values on figure, cells scored/replicate>100). […]
(§6) FIG. 10D is a bar graph showing a quantitative depiction of the percent cell area with EdU-staining from images in FIG. 4D, used to normalize foci to cell size (Student's t-test, p>0.05, not significant, n=6). […]

Pten^−/− MEFs = assay: EdU detection of replication forks in MEFs; assay type: cell-based, mouse; conditions: after 24 h of treatment with leflunomide
Experimental: as §5, §6

[7] = in vivo; cited from earlier work
PTEN-deficient cells = assay: Orotate rescue of growth inhibition by leflunomide; assay type: cell-based; conditions: increasing concentrations of orotate with 25 or 50 μM leflunomide; confluence after 5 days
From the text: as §1
Note that here as well as in FIG. 2, H-I, a large amount of DMSO was used in each condition to match the amount of orotate needed, narrowing the growth differential normally observed between leflunomide-treated and untreated cells in the PTEN mutant setting. FIG. 8B is a bar graph and immunoblot depicting cells transfected with siRNA against DHODH. The bar graph depicts cell viability measured using annexin V and 7AAD. 0.5 μg/mL actinomycin D was a positive control for cell death. (Students t-test, *p<0.05, n=3). […] FIG. 8C is an immunoblot of DHODH in Pten KO and WT cells. FIG. 8D is an immunoblot of pAKT in Pten KO and WT cells with or without treatment with 50 μM A771726. FIG. 8E and FIG. 8F are bar graphs depicting the GI50s of cells treated with dose titrations of 5-fluorouracil or mercaptopurine, respectively (Student's t-test, p>0.05, n=3). FIG. 8G depicts the confluence of prostate cells grown in media containing full glutamine (4 mM) or no added glutamine. Data shown as means±SD.
Orotate (Sigma O2750) was dissolved in DMSO.

O=c1[nH]cc(F)c(=O)[nH]1 [5-flurouracil, 5-fluorouracil]
differential sensitivity of Pten^−/− versus WT MEFs (Pten^−/− and WT MEFs [1]): did not show a differential sensitivity

O=C(Cc1cccc(OC(F)(F)F)c1)Nc1ccc(CCCCc2nnc(NC(=O)Cc3ccccn3)s2)nn1 [CB-839]
growth difference between Pten^−/− and WT MEFs (Pten^−/− and WT MEFs [2]): sufficient to collapse the growth difference

Cc1c(-c2ccc(-c3ccccc3F)cc2)nc2ccc(F)cc2c1C(=O)O [brequinar]
sensitivity of Pten^−/− MEFs compared with WT MEFs (Pten^−/− and WT MEFs [1]; GI50 dose titration (FIG. 2A)): more sensitive

Cc1oncc1C(=O)Nc1ccc(C(F)(F)F)cc1 [leflunomide]
sensitivity of Myc-CaP cells [3]: resistant | accumulation of dead cells over time [4]: increased accumulation of dead cells over time | association of sensitivity with proliferation rates of tumor cell lines [5]: not associated with the proliferation rates | tumor growth upon treatment ([6]; 100 mg/kg oral leflunomide, two PTEN-mutant triple-negative breast cancer xenografts): slowed or regressed | response of very large tumors (4×10^7 photons) ([6]; MDA-MB 468 xenografts grown seven weeks untreated, then 100 mg/kg leflunomide for 1 week): regressed after only 1 week of treatment | DNA damage (gamma-H2AX) in PTEN-deficient versus WT cells (gamma-H2AX): augmented DNA damage to a significantly greater degree in PTEN-deficient cells | number of replication forks in Pten^−/− MEFs after treatment (Pten^−/− MEFs): remained intact | half-life [7]: ~2 weeks

S=c1nc[nH]c2nc[nH]c12 [mercaptopurine]
differential sensitivity of Pten^−/− versus WT MEFs (Pten^−/− and WT MEFs [1]): did not show a differential sensitivity

O=C(O)c1cc(=O)[nH]c(=O)[nH]1 [orotate]
rescue of growth inhibition by leflunomide (PTEN-deficient cells): rescued growth inhibition by leflunomide in a dose-dependent manner
